Data reported in ChEMBL document CHEMBL5291721, “A preclinical secondary pharmacology resource illuminates target-adverse drug reaction associations of marketed drugs” (Nat Commun, 2023).

Assays:
Adenosine receptor A3 = biological target: T1, Adenosine receptor A3 (Homo sapiens, UniProt P0DMS8)
T1 sequence (P0DMS8 whole entry): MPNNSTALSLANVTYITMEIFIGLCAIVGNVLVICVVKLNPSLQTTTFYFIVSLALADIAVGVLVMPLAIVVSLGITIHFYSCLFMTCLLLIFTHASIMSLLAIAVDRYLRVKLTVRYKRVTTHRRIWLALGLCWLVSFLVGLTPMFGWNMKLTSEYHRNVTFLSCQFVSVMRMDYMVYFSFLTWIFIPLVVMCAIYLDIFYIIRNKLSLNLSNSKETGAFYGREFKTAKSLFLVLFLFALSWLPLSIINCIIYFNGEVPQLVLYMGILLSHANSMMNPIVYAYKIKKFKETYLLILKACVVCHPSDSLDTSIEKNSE

[1] = biological target: T2, Alpha-1A adrenergic receptor (Homo sapiens, UniProt P35348); assay type: functional, cell-based
T2 sequence (P35348 whole entry): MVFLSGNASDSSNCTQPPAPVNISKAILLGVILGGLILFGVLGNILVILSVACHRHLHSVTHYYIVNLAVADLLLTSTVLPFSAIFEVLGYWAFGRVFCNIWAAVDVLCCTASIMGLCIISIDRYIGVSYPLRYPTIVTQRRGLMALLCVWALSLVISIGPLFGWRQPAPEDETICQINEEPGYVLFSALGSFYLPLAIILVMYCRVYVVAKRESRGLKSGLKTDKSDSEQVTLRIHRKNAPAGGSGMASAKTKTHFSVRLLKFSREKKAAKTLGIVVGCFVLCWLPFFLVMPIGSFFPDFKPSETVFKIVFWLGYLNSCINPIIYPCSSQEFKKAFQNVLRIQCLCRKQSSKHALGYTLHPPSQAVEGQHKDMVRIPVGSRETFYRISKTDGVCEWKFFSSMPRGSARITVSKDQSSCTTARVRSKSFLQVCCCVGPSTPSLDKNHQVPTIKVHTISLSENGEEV

[2] = biological target: T3, Muscarinic acetylcholine receptor M1 (Homo sapiens, UniProt P11229); assay type: functional, cell-based
T3 sequence (P11229 whole entry): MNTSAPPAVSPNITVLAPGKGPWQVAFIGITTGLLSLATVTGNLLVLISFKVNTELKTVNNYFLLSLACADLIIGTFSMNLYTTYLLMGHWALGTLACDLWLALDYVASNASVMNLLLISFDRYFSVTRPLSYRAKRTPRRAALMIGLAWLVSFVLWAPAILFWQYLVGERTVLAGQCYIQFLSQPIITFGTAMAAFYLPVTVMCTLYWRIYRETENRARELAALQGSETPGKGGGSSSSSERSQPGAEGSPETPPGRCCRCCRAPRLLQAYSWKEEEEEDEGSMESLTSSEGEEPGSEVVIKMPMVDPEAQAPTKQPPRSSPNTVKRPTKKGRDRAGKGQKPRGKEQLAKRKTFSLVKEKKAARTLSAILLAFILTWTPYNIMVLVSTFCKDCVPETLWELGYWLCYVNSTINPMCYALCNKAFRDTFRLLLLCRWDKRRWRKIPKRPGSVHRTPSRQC

[3] = biological target: T4, Muscarinic acetylcholine receptor M2 (Homo sapiens, UniProt P08172)
T4 sequence (P08172 whole entry): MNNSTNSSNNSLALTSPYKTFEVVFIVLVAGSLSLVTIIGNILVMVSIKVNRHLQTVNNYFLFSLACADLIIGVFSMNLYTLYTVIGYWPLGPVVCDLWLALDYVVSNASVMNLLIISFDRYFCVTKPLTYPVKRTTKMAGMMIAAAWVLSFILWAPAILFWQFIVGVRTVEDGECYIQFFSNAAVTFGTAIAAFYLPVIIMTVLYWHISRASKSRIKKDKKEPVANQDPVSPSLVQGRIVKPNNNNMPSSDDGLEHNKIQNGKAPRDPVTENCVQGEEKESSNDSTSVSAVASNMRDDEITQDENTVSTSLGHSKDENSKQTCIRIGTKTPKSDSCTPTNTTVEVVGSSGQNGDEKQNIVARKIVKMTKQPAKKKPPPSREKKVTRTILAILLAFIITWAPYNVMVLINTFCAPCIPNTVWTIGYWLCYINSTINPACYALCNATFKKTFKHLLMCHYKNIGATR

Estrogen receptor = biological target: T5, Estrogen receptor (Homo sapiens, UniProt P03372)
T5 sequence (P03372 whole entry): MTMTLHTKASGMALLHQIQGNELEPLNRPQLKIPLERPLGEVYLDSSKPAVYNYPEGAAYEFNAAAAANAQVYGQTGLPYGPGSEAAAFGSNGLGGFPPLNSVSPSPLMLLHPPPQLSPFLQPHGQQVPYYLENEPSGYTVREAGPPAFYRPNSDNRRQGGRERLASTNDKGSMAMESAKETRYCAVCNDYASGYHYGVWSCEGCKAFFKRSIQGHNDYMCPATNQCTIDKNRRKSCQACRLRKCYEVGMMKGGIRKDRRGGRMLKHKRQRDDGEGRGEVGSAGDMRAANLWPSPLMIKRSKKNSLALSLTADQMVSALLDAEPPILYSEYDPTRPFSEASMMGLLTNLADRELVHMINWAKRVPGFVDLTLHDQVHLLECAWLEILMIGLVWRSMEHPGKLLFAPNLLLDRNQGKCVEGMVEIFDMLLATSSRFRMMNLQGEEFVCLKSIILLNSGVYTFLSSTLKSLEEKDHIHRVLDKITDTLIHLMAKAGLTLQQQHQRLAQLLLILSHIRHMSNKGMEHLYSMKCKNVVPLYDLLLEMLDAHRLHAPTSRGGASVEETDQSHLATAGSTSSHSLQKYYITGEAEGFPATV

Mu-type opioid receptor = Mu-type opioid receptor (Homo sapiens, UniProt P35372)
[4] = biological target: 3',5'-cyclic-AMP phosphodiesterase 4A (Homo sapiens, UniProt P27815); assay type: functional
[5] = biological target: Sodium-dependent noradrenaline transporter (Homo sapiens, UniProt P23975)
[6] = biological target: Sodium-dependent dopamine transporter (Homo sapiens, UniProt Q01959)
Thromboxane A2 receptor = biological target: T6, Thromboxane A2 receptor (Homo sapiens, UniProt P21731); assay type: functional, cell-based
T6 sequence (P21731 whole entry): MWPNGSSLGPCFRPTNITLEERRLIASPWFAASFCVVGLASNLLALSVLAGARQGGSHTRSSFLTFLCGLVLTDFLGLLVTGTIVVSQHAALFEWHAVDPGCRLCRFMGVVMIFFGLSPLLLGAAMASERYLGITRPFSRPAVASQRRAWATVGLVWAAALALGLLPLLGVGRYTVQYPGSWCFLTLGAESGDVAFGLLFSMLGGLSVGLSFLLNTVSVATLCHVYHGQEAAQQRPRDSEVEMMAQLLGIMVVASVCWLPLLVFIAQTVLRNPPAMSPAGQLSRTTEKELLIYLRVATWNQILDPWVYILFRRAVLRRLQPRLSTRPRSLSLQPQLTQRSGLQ
Note: assay procedure not described here.

Sequence of Mu-type opioid receptor (P35372 whole entry): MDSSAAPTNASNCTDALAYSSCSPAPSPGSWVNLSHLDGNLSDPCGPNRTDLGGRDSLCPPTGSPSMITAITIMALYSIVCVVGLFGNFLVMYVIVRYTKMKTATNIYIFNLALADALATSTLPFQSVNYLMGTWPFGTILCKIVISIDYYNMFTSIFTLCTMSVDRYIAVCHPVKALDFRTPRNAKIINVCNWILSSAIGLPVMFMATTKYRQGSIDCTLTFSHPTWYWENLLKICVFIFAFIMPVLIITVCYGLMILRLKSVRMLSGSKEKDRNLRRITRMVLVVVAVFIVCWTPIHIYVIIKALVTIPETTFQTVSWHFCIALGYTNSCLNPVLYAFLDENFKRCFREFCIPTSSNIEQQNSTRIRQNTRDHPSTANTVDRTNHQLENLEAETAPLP
Sequence of Sodium-dependent dopamine transporter (Q01959 whole entry): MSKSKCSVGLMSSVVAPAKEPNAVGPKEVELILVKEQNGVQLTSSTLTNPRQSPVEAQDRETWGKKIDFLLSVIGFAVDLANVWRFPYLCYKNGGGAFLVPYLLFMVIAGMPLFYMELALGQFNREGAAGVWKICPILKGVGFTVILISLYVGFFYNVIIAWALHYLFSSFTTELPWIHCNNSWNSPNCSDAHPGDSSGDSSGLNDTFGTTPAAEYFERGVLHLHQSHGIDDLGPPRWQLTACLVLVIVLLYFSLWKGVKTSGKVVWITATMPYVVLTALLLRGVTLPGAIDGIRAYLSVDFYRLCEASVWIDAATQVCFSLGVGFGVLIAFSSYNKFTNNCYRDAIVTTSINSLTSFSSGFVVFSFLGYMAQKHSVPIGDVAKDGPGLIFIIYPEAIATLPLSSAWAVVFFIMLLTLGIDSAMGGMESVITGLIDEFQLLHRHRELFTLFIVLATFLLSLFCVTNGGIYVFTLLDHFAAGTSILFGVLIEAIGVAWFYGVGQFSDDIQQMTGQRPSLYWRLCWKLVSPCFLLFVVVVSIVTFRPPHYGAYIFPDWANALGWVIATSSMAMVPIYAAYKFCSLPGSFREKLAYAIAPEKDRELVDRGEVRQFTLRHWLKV
Sequence of Sodium-dependent noradrenaline transporter (P23975 whole entry): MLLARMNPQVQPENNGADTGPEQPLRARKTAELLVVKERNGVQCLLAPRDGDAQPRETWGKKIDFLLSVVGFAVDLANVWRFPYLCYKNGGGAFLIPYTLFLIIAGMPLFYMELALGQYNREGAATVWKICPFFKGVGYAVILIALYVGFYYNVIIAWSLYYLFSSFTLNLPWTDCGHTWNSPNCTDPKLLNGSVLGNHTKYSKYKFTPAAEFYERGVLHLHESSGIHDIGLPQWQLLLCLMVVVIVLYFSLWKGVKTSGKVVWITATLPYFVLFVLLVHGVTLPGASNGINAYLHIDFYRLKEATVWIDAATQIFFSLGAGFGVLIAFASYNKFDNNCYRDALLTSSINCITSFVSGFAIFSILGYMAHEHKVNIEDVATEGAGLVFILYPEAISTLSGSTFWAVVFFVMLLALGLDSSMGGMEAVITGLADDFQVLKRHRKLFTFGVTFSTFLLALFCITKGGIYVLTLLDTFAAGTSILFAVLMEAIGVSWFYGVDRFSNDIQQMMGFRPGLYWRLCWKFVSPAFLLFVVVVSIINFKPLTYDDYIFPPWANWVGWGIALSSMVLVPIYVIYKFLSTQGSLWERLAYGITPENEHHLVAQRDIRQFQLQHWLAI
Sequence of 3',5'-cyclic-AMP phosphodiesterase 4A (P27815 whole entry): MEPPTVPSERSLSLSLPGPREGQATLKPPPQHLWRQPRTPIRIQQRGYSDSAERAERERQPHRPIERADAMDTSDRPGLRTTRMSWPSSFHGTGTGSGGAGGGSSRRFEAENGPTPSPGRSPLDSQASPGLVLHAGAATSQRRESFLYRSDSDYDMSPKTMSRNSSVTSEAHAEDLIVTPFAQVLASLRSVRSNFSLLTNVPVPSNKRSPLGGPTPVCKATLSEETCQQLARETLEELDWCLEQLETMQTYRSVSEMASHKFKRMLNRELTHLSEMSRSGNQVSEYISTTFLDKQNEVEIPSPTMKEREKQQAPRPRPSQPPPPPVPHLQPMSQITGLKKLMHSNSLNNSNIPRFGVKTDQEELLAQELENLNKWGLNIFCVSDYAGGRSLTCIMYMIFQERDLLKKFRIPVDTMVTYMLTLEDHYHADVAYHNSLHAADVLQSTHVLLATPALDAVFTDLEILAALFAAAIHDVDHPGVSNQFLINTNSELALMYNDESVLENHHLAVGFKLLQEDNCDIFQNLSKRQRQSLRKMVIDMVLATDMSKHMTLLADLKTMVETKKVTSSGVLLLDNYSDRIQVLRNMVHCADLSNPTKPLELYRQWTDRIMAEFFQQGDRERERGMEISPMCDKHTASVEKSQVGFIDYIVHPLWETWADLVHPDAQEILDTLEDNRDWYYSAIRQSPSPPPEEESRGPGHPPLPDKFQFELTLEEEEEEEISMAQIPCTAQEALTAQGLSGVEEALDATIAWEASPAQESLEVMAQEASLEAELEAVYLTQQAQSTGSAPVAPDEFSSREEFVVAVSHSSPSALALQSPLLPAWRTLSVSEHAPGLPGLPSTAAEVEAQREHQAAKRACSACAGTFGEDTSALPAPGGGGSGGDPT

Compound | AC50 (Adenosine receptor A3) [µM] | AC50 [1] [µM] | AC50 [2] [µM] | AC50 [3] [µM] | AC50 (Estrogen receptor) [µM] | AC50 (Mu-type opioid receptor) [µM] | AC50 [4] [µM] | AC50 [5] [µM] | AC50 [6] [µM] | AC50 (Thromboxane A2 receptor) [µM]
CC(=O)OCC1=C(C(=O)O)N2C(=O)[C@@H](NC(=O)[C@H](N)c3ccccc3)[C@H]2SC1 [CEPHALOGLYCIN] | > 30 | > 30 | > 30 | > 30 | > 30 | > 30 | > 30 | > 30 | > 30 | > 30
CC(C)(C)C(=O)C(Oc1ccc(Cl)cc1)n1ccnc1 (stereo not given) [CLIMBAZOLE] | 20.2 | 25.6 | > 30 | > 30 | > 30 | > 30 | > 30 | 20.8 | 0.0662 | > 30
NC1CCN(c2c(F)cc3c(=O)c(C(=O)O)cn(C4CC4)c3c2Cl)C1 (stereo not given) [CLINAFLOXACIN] | > 30 | > 30 | > 30 | 5.08 | > 30 | 4.91 | > 30 | > 30 | > 30 | > 30
CC(C)(C)CC(C)(C)c1ccc(O)c(Cc2ccc(Cl)cc2Cl)c1 [CLOFOCTOL] | 1.12 | > 30 | > 30 | > 10 | 8.45 | 22 | 5.93 | 3.4 | 3.54 | > 30
Clc1ccc(C(OCCN2CCCCC2)c2ccccc2)cc1 (stereo not given) [CLOPERASTINE] | > 30 | 1.27 | > 30 | 0.331 | > 30 | 13.6 | > 30 | 6.39 | 1.09 | 17
CCOc1ccc(Cc2cc([C@@H]3O[C@H](CO)[C@@H](O)[C@H](O)[C@H]3O)ccc2Cl)cc1 [DAPAGLIFLOZIN] | > 30 | > 30 | > 30 | > 30 | > 30 | > 30 | > 30 | > 30 | > 30 | > 30
CC(=O)OCC(=O)[C@@]1(O)CC[C@H]2[C@@H]3CCC4=CC(=O)C=C[C@]4(C)[C@@]3(Cl)[C@@H](Cl)C[C@@]21C [DICHLORISONE ACETATE] | > 30 | > 30 | > 30 | > 30 | > 30 | > 30 | > 30 | > 30 | > 30 | > 30
NNc1nnc(NN)c2ccccc12 [DIHYDRALAZINE] | 0.197 | > 30 | > 30 | > 30 | > 30 | 25.6 | > 30 | > 30 | > 30 | > 30
